5 molecules from patent publication US20130202614A1, “AUTOTAXIN PATHWAY MODULATION AND USES THEREOF” (B.S.R.C. "ALEXANDER FLEMING", priority 2010, published 2013) can be followed below.

What all share (format): cell-based, mouse
For assay [1], the system named is primary SFs. The assay is described as follows: Synovial fibroblast proliferation assay ([3H]thymidine incorporation). As to conditions: for LPA responses of wt SFs (LPA-induced proliferation): pre-treated with inhibitor prior to LPA stimulation. As to the method: Primary SFs were isolated from 6-8 week old mice as previously described. Briefly, mouse joint specimens were minced and digested with type IV collagenase. The released cells were grown in Dulbecco's modified Eagle's medium (DMEM) supplemented with fetal bovine serum (FBS) and penicillin-streptomycin. Isolated fibroblasts adhered on culture dishes were maintained under standard conditions (37° C. and 5% CO2) and used for the experiments between the third and fifth passages.
Cells were starved with serum-free medium before treatment due to the presence of lysophospholipids in the serum Starvation medium is supplemented with 0.2% fatty-acid-free BSA. After routine starvation, cells were stimulated with various concentrations of the tested compounds (LPA, LPC, S1P or TNF) as indicated in details below. Where indicated cells were pre-treated with the inhibitors of ERK MAPK, p38 MAPK, JNK and Rho kinase for 3 hours prior to LPA stimulation. At the moment of cell treatment, the culture medium was replaced with fresh serum-free medium containing various concentrations of the tested compounds.
Preconfluent cell cultures were starved overnight, incubated for 24 h with LPA and the rest tested compounds and finally exposed to 0.5 μCi/ml of [^3H]thymidine. Cells were then washed, harvested by trypsinization and blotted on a membrane. The radioactivity of incorporated [^3H]-thymidine was determined by liquid scintillation counting.
(Dividing cells build labelled thymidine or BrdU into new DNA.)

The test system of a further assay is BMD macrophages. The assay is described as follows: Macrophage proliferation upon LPA addition. As to conditions: primary cultures.
The test system of assay [2] is primary SFs. Kind of assay: SF adhesion assay (fibronectin). The settings on record: LPA stimulation. As to the method: This assay was performed on plates coated with human fibronectin. Briefly, cells were allowed to adhere to the substrate, and unbound cells were removed with sequential washes with PBS. Adhered cells were then stained with crystal violet, solubilized, and their absorbance was determined at 570 nm. The experiment was performed in triplicates.

Assay [3] concerns primary SFs. Kind of assay: SF cell migration assay (Boyden chambers). As to conditions: LPA stimulation. As for the experimental part: Modified Boyden chambers with 8-μm pores (Corning/Costar) were used where the lower surface of the membrane was coated with 10 μg/ml human fibronectin for 2 hours at 37° C. Cells were harvested with trypsin/EDTA, washed with PBS, and resuspended to 1×10^6 cells per ml. The suspension was added to the upper chamber, and the cells were allowed to migrate at 37° C., 5% CO2, for 4 hours. Non-migratory cells were removed from the upper surface of the membrane while migratory cells in the lower compartment of the chambers were washed with PBS and stained with 0.2% crystal violet in 10% ethanol for 10 min. After extensive washing in H2O, the cells were lysed and absorbance was measured at 570 nm with a SPECTRAmax photometer.

The test system of assay [4] is primary SFs. Kind of assay: SF actin cytoskeleton rearrangement (phalloidin F-actin staining). As to conditions: phaloidin-F-actin staining. As for the experimental part:
Cells were cultured on glass coverslips, grown in the presence of serum to subconfluence, and starved for 24 h by replacing the medium with serum-free medium containing 0.1% bovine serum albumin. Then the cells were treated with LPA and other components in serum-free medium for 4 h, fixed with 4% PFA and stained for F-actin with TRITC-conjugated phalloidin according to the manufacturer's protocol.

Assay [5] relates to primary SFs. Kind of assay: SF proinflammatory cytokine secretion (multiplex Luminex ELISA). As to conditions: especially IL-6. A general note: In an ELISA, binding on a coated surface is turned into a signal by an enzyme label.
Assay [6] deals with primary SFs. The assay is described as follows: MMP production by SFs (RT-PCR). The settings on record: MMP-9. As to the method:
Total RNA was extracted from subconfluent cultured SFs with the TRIzol reagent (Invitrogen Ltd, Paisley, PA4 9RF, UK Carlsbad, Calif. 92008) according to the manufacturer's instructions. RNA yield and purity were determined spectrophotometrically at 260/280 nm. cDNA synthesis was performed using the MMLV reverse transcriptase (Promega, Madison, Wis., United States Madison, Wis. 53711 USA). In all cases the normalization was performed in relation to the B2m internal control.
SQ PCR was performed by 20-27 cycles of denaturation at 95° C. for 30 s, annealing at 56-60° C. (depending on the Tm of each individual set of primers) for 30 s, and extension at 72° C. for 1 min, in a final volume of 20 μl. The products were separated by electrophoresis on 1.5% agarose gel and stained with ethidium bromide. […] Quantitative real-time PCR was performed using the iCycler Iq Real-Time detection system and the IQ SYBR Green Supermix (Bio-Rad Laboratories, Hercules, Calif., United States), according to the manufacturer's instructions, for one cycle of 95° C. for 3 min, and 42 cycles of denaturation at 95° C. for 30 s and annealing at 56-58° C. for 45 s. […]

The test system of another assay is BDM macrophages. Kind of assay: BMDM cytokine secretion (Luminex). As to conditions: upon LPA stimulation.

In the case of 1-oleoyl-LPA (18:1), in the assay with primary SFs [1] (3H-thymidine incorporation), the “proliferation of wt SFs” value is “stimulated the proliferation”. Further, the “synergy with TNF on SF proliferation” value in the assay with primary SFs [1] (different concentrations of LPA and/or TNF) is on record as “synergizes with TNF”. Moreover, the proliferation of macrophages result with BMD macrophages is reported as “no effects”. In the assay on primary SFs [2], the SF adhesion result is reported as “increased”. Besides, the SF migration result in the assay on primary SFs [3] was “increased”. The SF actin cytoskeleton result with primary SFs [4] is reported as “rearrangements of their actin cytoskeleton”. The “proinflammatory cytokine secretion from SFs” value in the assay on primary SFs [5] is “stimulated proinflammatory cytokine secretion”. Moreover, the “production of matrix metaloproteinases (MMPs) by SFs” value with primary SFs [6] was “stimulated”. Further, the “cytokine secretion from BDM macrophages” value in the assay with BDM macrophages was “No differences”.
As for `C[C@@H](N)[C@H]1CC[C@H](C(=O)Nc2ccncc2)CC1` [Hybridoma Y27632], in the assay on primary SFs [1], the “LPA responses of wt SFs (LPA-induced proliferation)” value (“LPA responses of wt SFs” for short) is “inhibited”.
Regarding `CCCCCCCC/C=C\CCCCCCCC(=O)OC[C@@H](O)COP(=O)([O-])OCC[N+](C)(C)C` [LPC, 1-oleoyl-LPC (18:1)], in the assay with primary SFs [1] (3H-thymidine incorporation), the “proliferation of mRA SFs” value is “did stimulate the proliferation” and the “proliferation of wt SFs” value is listed as “no effects”.
On to `COc1cccc(-c2cc(=O)c3ccccc3o2)c1N` [PD98059], for which the “LPA responses of wt SFs” value in the assay with primary SFs [1] is “inhibited”.
Consider `C[S+]([O-])c1ccc(-c2nc(-c3ccncc3)c(-c3ccc(F)cc3)[nH]2)cc1` (centres unmarked) [SB203580], for which, in the assay on primary SFs [1], the “LPA responses of wt SFs” value is listed as “inhibited”.
